Like-named read-outs stand apart in the source and are kept apart here. Where no end group is shown, it is not given here. [ ]: non-standard residue; d: D form.
How the values were obtained:
[1] = system: ABCA1; assay: RT-PCR of ABCA1 mRNA in RAW cells exposed to LPS preparations; type: cell-based, mouse; conditions: inhibitor 20 mM added 2 h before LPS 10 ng/ml, 24 h
Protocol: (§1) Cell culture and treatment.
(§2) RNA isolation and cDNA preparation. The total RNA of cultured cells is isolated and purified using Trizol reagent (Gibco BRL, Grand Island, N.Y.) according to the manufacturer's protocol. The concentration and quality of RNA were determined by UV absorbance at 260 and 280 nm. To prepare cDNA, total RNA (3 μg) is added to a mixture containing the following: 6 μl of 5× first-strand buffer (75 mM KCl, 50 mM Tris-HCl [pH 8.3], 3 mM MgCl2), 1.5 μl of deoxynucleoside triphosphates (10 mM [each] dATP, dCTP, dTTP, and dGTP), 1.5 μl of 0.0156 U (0.4 μg) of random hexamers, and 0.2 U of Moloney murine leukemia virus reverse transcriptase (all from Gibco BRL, Gaithersburg, Md.); 0.004 U of RNasin (Promega, Madison, Wis.); and RNase-free water to a final volume of 30 μl per 3 μg of cDNA. Samples are incubated at 37° C. for 60 min. Preliminary experiments are undertaken to achieve optimal conditions for amplifying mRNA for each of the gene products.
(§3) Reverse transcription-PCR (RT-PCR). […]
(§4) For the densitometry analysis, the intensities of the bands are measured with the Gel-Pro Analyzer 3.0 computer program and normalized with GADPH intensity.

[2] = system: IL-1β; assay: RT-PCR of IL-1β mRNA in RAW cells exposed to LPS preparations; type: cell-based, mouse; conditions: 24 h
Protocol: as §1, §2, §3, §4

[3] = system: SR-BI/CLA-1; type: cell-based, mouse; conditions: 24 h; for activity as modulator of SR-BI, ABCA1 and IL-1β gene expression compared with other LPS preparations / relative activities for the suppressive effect on SR-BI/CLA-1 and ABCA1 expression and SR-BI/CLA-1 protein expression: 10 ng/ml, RAW cells
Protocol: as §1, §2
Reverse transcription-PCR (RT-PCR). A mixture of 37.2 μl of RNase-free water, 5 μl of 10× reaction buffer, and 0.5 μl (5 U) of AmpliTaq Gold DNA polymerase (Applied Biosystems, Roche Molecular Systems, Inc., Branchburg, N.J.), sense and antisense primers (1 μl each), and 0.3 μl (3 μCi) of [α-^32P]dCTP (Amersham Pharmacia Biotech, San Diego, Calif.) is vortexed, and 46 μl is aliquoted into each tube, containing 4 μl of cDNA, and overlaid with 50 μl of mineral oil (Sigma Chemical Co.). cDNA is amplified in a Perkin-Elmer (Norwalk, Conn.) System 2400 DNA thermal cycler, with denaturation for 1 min at 94° C., annealing for 1 min at 50° C., and extension for 2 min at 72° C. for GADPH (glyceraldehyde-3-phosphate dehydrogenase) (19 cycles), ABCA1 (28 cycles), SR-BI/CLA-1, and interleukin-1 [3 (IL-1β (27 cycles). The primers used in these analyses are as follows: GADPH, (SEQ ID NO:1) 5′-[…]-3′ and (SEQ ID NO:2) 5′-[…]-3′; SR-BI/CLA-1, (SEQ ID NO:3) 5′-CCA […] GGC TTC TGC-3′ and (SEQ ID NO:4) 5′-CTG AAT GGC CTC CTT ATC C-3′; ABCA1, (SEQ ID NO:5) 5′-CAACTACAAAGCCCTCTTTG-3′ and (SEQ ID NO:6) 5′-CTTGGCTGTTCTCCATGAAG-3′; and IL-1β, (SEQ ID NO:7) 5′-CTG AAA GCT CTC CAC CTC-3′ and (SEQ ID NO:8) 5′-GTG CTG ATG TAC CAG TTG-3′.
as §4

[4] = Limulus amebocyte lysate (LAL) assay for LPS incubated with peptides; conditions: RPMI-1640 1% FCS or DPBS; 10 ng/ml LPS, 10 μg/ml peptide, 37° C., 24 h
From the text: Limulus Amebocyte Lysate (LAL) Assay for LPS.
Limulus amebocyte lysate (LAL) assay for LPS.

[5] = biological target: T1, CLA-1 (Homo sapiens, UniProt Q8WTV0); type: binding; conditions: for competition of unlabelled ligands against 125I-LPS (0111:B4): 100× excess unlabeled ligand, CLA-1 overexpressing and mock-transfected cells
T1 construct: using the expression plasmid pTRE2 (Clontech, Pal Alto, Calif.), encoding a CLA-1 protein (pTRE2-CLA-1); expressed in transfected cells; host or cells: HeLa (Tet-off) cells (Clontech), stably co-transfected with pTRE2-CLA-1 and pTK-Hyg and selected with hygromycin
T1 sequence (Q8WTV0 1-509 isoform Q8WTV0-2): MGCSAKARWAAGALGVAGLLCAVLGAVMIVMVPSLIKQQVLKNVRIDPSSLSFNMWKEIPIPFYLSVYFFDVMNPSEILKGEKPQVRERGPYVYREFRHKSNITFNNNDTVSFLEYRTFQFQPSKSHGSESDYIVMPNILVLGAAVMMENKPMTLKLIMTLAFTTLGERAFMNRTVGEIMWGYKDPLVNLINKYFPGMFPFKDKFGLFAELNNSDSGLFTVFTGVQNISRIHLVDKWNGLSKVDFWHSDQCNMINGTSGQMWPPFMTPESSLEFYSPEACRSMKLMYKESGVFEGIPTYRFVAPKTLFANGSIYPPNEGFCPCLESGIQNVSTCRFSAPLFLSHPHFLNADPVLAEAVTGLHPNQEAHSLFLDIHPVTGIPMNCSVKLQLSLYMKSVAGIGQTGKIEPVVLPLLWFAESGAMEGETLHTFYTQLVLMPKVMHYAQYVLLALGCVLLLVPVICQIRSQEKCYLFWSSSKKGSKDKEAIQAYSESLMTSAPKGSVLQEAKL
Protocol: The lipopolysaccharide 0111:B4 (Sigma) is iodinated as reported by Ulevitch, R J. (1978) (“THE PREPARATION AND CHARACTERIZATION OF A RADIO IODINATED BACTERIAL LIPOPOLYSACCHARIDE,” Immunochemistry 15:157-164). […] After a 2-hr-incubation on ice, the cells are rinsed with ice-cold HBSS and utilized for radioactivity measurements as reported by Bocharov, A. V. et al. (2001) (“CHARACTERIZATION OF A 95 KDA HIGH AFFINITY HUMAN HIGH DENSITY LIPOPROTEIN-BINDING PROTEIN,” Biochemistry 40:4407-4416). Specific binding is determined as the difference between total and non-specific binding, and normalized by protein content.
HeLa cells grown until 70% confluence in DMEM with 10% FCS are washed with PBS and cultured for 24 hr in serum-free DMEM. […] After washing with ice-cold PBS, the cells are hydrolyzed in 1 N NaOH. Radioactivity is counted in an LKB Wallac Ultragamma counter.

[6] = system: THP-1 cells; assay: TNFα-induced IL-6 and IL-8 secretion in THP-1 cells; type: cell-based, human
From the text: (§5) Assays for cytokines and lactate dehydrogenase (LD).

[7] = system: THP-1 cells; assay: LTA, Gro-EL and HSP60 stimulated IL-8/IL-6 production in THP-1 cells; type: cell-based, human; conditions: 1 μg/ml LTA or Gro-EL, 10-200 fold excess of peptide
Protocol: (§6) THP-1 and CLA-1 overexpressing HeLa cells. Human monocyte-macrophages, THP-1 (ATCC [American Type Culture Collection] TIB 71), are grown in 48-well plates in RPMI 1640 medium supplemented with 10% fetal calf serum (FCS), penicillin (100 U/ml), and streptomycin (100 μg/ml). All experiments involving LPS-induced interleukin production utilize the same media except that 1% FCS was used. Hela cells were cultured as previously reported (Vishnyakova, T. G. et al. (2003) “BINDING AND INTERNALIZATION OF LIPOPOLY[…] CLA-1, A HUMAN ORTHOLOGUE OF RODENT […] RECEPTOR B1,” J. Biol. Chem 278:22771-22780).
as §5

[8] = system: THP-1 cells; assay: LPS-stimulated cytokine production in THP-1 cells (ELISA); type: cell-based, human; conditions: 10 ng/ml LPS, 24 h
Protocol: as §6
Assays for cytokines and lactate dehydrogenase (LD). […]

[9] = system: SR-BI/CLA-1; assay: Competition for 125I-HDL binding sites in RAW cells; design: species or system mouse; conditions: 50 μg/ml LPS analogs
Protocol: Competition Binding Experiments. RAW cells are cultured for 24 hr in serum free DMEM before experiment. […] Cell radioactivity is measured as described in the “LPS-binding assay” section.

[10] = biological target: T1, CLA-1; assay: 125I-HDL binding and HDL-CE uptake in CLA-1 stably transfected HeLa cells
Protocol: CLA-1 Overexpression HeLa cells. HeLa (Tet-off) cells (Clontech, Pal Alto, Calif.) are grown in DMEM (Invitrogen), supplemented with 10% fetal calf serum, 2 mM glutamine, 100 IU/ml of penicillin, 100 μg/ml of streptomycin, and 100 μg/ml of G418. Cells were transfected with FuGENE-6 (Roche Diagnostics), using the expression plasmid pTRE2 (Clontech, Pal Alto, Calif.), encoding a CLA-1 protein (pTRE2-CLA-1). Cells were co-transfected with pTRE2-CLA-1 and pTK-Hyg (Clontech, Pal Alto, Calif.), using a 1:20 ratio, and selected with 400 μg/ml of hygromycin. Hygromycin resistant cells were screened for the expression of the CLA-1 protein by utilizing rabbit anti-SR-BI/CLA-1 (Novus Biological, Inc) by Western blotting.
HDL-Binding And Cholesteryl Oleoyl Uptake Assays. Saturation binding experiments are performed at 4° C. using ^125I-HDL concentrations between 1.25 and 40 μg/ml. […] After a 2 hr-incubation on ice, specific binding is determined as reported by Bocharov, A. V. et al. (2001) (“CHARACTERIZATION OF A 95 KDA HIGH AFFINITY HUMAN HIGH DENSITY LIPOPROTEIN-BINDING PROTEIN,” Biochemistry 40:4407-4416).
HDL-[^3H]CE uptake experiments are performed in a serum free DMEM containing 0.2% BSA. […] Specific uptake is determined as the difference between total and nonspecific uptake.

[11] = biological target: T2, CLA-1 (CD36 and LIMPII Analogous-1), human scavenger receptor class B type I (human, UniProt Q8WTV0 1-552); assay: confocal microscopy of Alexa 568-labelled peptide uptake, CLA-1 HeLa against mock HeLa
T2 construct: whole, on cells; Target is CLA-1 on stably transfected HeLa cells, compared with mock-transfected HeLa cells, which carry a low endogenous level of CLA-1; also called SR-BI/CLA-1; human SR-BI
T2 sequence (looked up): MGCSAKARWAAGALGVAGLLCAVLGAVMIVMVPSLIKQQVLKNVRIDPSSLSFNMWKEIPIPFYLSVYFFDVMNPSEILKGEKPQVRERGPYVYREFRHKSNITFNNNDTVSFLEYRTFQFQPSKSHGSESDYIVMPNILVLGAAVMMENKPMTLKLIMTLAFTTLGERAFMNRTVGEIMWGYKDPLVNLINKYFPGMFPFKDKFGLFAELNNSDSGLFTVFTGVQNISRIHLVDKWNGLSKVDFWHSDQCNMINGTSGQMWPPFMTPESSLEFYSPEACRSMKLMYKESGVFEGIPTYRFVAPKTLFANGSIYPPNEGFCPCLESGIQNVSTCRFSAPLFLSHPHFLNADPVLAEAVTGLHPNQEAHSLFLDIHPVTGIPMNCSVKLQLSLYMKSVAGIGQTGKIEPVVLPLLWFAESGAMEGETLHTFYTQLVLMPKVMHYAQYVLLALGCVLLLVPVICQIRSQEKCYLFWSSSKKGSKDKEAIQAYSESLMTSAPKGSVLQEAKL

[12] = inhibitor 20 mM added 2 h before LPS 10 ng/ml

Cc1ccc(S(=O)(=O)N[C@@H](Cc2ccccc2)C(=O)CCl)cc1 [TPCK, tosylphenyl chloromethyl ketone]
effect on LPS-induced ABCA1 mRNA level decrease [1]: effectively prevented | effect on LPS-induced increase of IL-1β mRNA [2, 12]: effectively prevented | effect on LPS-induced SR-BI/CLA-1 mRNA level decrease [3, 12]: effectively prevented

DWLKAFYDKVAEKLKEAF-P-DWLKAFYDKVAEKLKEAF [D-37PA] ([dD][dW][dL][dK][dA][dF][dY][dD][dK][dV][dA][dE][dK][dL][dK][dE][dA][dF][dP][dD][dW][dL][dK][dA][dF][dY][dD][dK][dV][dA][dE][dK][dL][dK][dE][dA][dF]) [Peptide D-37PA]
effect on LAL activity of LPS in media containing bivalent cations [4]: neither L-37PA nor D-37PA affected LPS's endotoxin activity | competition against 125I-LPS ([5]; 1 μg/ml 125I-LPS, mock transfected and CLA-1 overexpressing HeLa cells): competed in a dose-dependent manner | effect on TNFα-induced IL-6 and IL-8 production [6]: neither peptides was effective in blocking | effect on LTA and Gro-EL stimulated IL-8 and IL-6 production [7]: similarly effective in blocking | effect on LPS-stimulated cytokine (IL-8, IL-6, TNF-α) production [8]: similarly effective in a blocking

diphosphoryllipid A [DPLA]
decrease of 125I-HDL-binding by forms of LPS [9]: similarly decreased | competition of unlabelled ligands against 125I-LPS (0111:B4) [5]: compete against iodinated LPS in both cell lines | activity as modulator of SR-BI, ABCA1 and IL-1β gene expression compared with other LPS preparations [3]: the same activity as the complete form of LPS from E. coli | relative activities for the suppressive effect on SR-BI/CLA-1 and ABCA1 expression and SR-BI/CLA-1 protein expression [3]: LPS (Re595)>LPS (0111:B4)>DPLA>MPLA

lipid A
competition for 125I-HDL-binding to CLA-1 overexpressing human HeLa cells [10]: all competed

monophosphoryllipid A [MPLA]
competition of unlabelled ligands against 125I-LPS (0111:B4) [5]: compete against iodinated LPS in both cell lines | potency for IL-1β gene induction relative to Re595 LPS or DPLA ([2]; 10 ng/ml, RAW cells): approximately one-half | activity as modulator of SR-BI, ABCA1 and IL-1β gene expression compared with other LPS preparations [3]: decreased activity compared to the other LPS derivatives | relative activities for the suppressive effect on SR-BI/CLA-1 and ABCA1 expression and SR-BI/CLA-1 protein expression [3]: LPS (Re595)>LPS (0111:B4)>DPLA>MPLA | activity as modulator of SR-BI, ABCA1 and IL-1β gene expression compared with other LPS preparations ([3]; listed as Re595 MPLA): less potent modulator

B1: 18A (peptide)
peptide: DWLKAFYDKVAEKLKEAF
notes: Synthetic single class A amphipathic helix; also called 18PA; L18PA
binding result [11]: no binding

Source: patent US20090011974A1, “Scavenger Receptor B1 (Cla-1) Targeting for the Treatment of Infection, Sepsis and Inflammation” (priority 2002, published 2009)
